Measured values reported in article PMC6211292 (Journal of the American Chemical Society, 2018).

What was measured:
[1] = biological target: T1, PtmO5 (Streptomyces platensis, UniProt D8L2V0); test: type I difference spectra titration, nonlinear regression of A390-A422; type: binding; details: 0-5 μM ligand; type I shift 422 to 390 nm; heme site
T1 sequence (D8L2V0 1-430): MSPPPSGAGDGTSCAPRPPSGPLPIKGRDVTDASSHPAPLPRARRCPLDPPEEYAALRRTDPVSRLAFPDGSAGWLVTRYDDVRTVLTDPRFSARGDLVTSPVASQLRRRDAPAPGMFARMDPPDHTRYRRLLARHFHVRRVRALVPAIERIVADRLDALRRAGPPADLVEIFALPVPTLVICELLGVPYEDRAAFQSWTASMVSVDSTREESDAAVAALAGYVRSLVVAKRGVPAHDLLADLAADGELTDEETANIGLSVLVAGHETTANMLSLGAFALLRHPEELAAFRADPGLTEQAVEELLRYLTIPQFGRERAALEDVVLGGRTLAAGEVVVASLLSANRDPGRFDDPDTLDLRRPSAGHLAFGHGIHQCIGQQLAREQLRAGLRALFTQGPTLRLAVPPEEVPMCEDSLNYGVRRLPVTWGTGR

[2] = biological target: T1, PtmO5; test: type I binding spectra; details: heme site, poor solubility of 4

| Compound | Kd [1] | Kd [2] |
| --- | --- | --- |
| C[C@@]12CCC[C@@](C)(C(=O)O)[C@H]1CC[C@@]13C[C@@H](CC[C@H]12)[C@](C)(O)C3 [compound 1, (16R)-hydroxy-ent-kauran-19-oic acid] | 860 ± 70 nM |  |
| C=C1C[C@@]23CC[C@H]4[C@@](C)(CCC[C@@]4(C)C(=O)O)[C@@H]2CC[C@@H]1C3 [compound 4, ent-kaur-16-en-19-oic acid] |  | 750 ± 190 nM |
